In the supplement of paper PMC10307832:

Assays:
Assay in all cases: relative viability (nuclei count vs DMSO), 5 days (fraction); higher = more cells survive
[1] = compound: CC1CC(=O)N(C2=CN=C(N=C2N1C3CCCC3)NC4=C(C=C(C=C4)C(=O)NC5CCN(CC5)C)OC)C [NPK76-II-72-1] + CC(C)C[C@H](NC(=O)[C@H](Cc1ccccc1)NC(=O)c1cnccn1)B(O)O [Bortezomib] (partner 0.002 µM)
Procedure, shortened: (§1)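 Lung cancer cell lines were seeded in 1536-well plates and dosed by pin tool the next day, with either a single drug or a fixed anchor-drug dose combined with five library-drug doses (not always all listed) spaced in √10 steps. Five days later, one step fixed the cells and stained their nuclei (final 0.05% Triton X-100, 1% formaldehyde, 1 ug/ml Hoechst), and nuclei were counted on 4× images. Relative viability is the nuclei count in treated wells divided by the count in vehicle wells, and each value is the median of duplicate plates.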

[2] = compound: CC1CC(=O)N(C2=CN=C(N=C2N1C3CCCC3)NC4=C(C=C(C=C4)C(=O)NC5CCN(CC5)C)OC)C [NPK76-II-72-1] + Cc1nc(Nc2ncc(C(=O)Nc3c(C)cccc3Cl)s2)cc(N2CCN(CCO)CC2)n1 [Dasatinib] (partner 0.075 µM)
Procedure, shortened: as §1

BI-2536 + Trametinib = compound: CC[C@@H]1C(=O)N(C)c2cnc(Nc3ccc(C(=O)NC4CCN(C)CC4)cc3OC)nc2N1C1CCCC1 [BI-2536] + CC(=O)Nc1cccc(-n2c(=O)n(C3CC3)c(=O)c3c(Nc4ccc(I)cc4F)n(C)c(=O)c(C)c32)c1 [Trametinib] (partner 0.02 µM)
Procedure, shortened: as §1

BI-2536 + Foretinib = compound: CC[C@@H]1C(=O)N(C)c2cnc(Nc3ccc(C(=O)NC4CCN(C)CC4)cc3OC)nc2N1C1CCCC1 [BI-2536] + COc1cc2c(Oc3ccc(NC(=O)C4(C(=O)Nc5ccc(F)cc5)CC4)cc3F)ccnc2cc1OCCCN1CCOCC1 [Foretinib] (partner 0.25 µM)
Procedure, shortened: as §1

Row | Cell Line | relative viability ([1]; first compound 0.01 µM) | relative viability ([1]; first compound 0.03162 µM) | relative viability ([1]; first compound 0.1 µM) | relative viability ([1]; first compound 0.3162 µM) | relative viability ([1]; first compound 1 µM) | relative viability ([2]; first compound 0.01 µM) | relative viability ([2]; first compound 0.03162 µM) | relative viability ([2]; first compound 0.1 µM) | relative viability ([2]; first compound 0.3162 µM) | relative viability ([2]; first compound 1 µM) | relative viability (BI-2536 + Trametinib; first compound 0.01 µM) | relative viability (BI-2536 + Trametinib; first compound 0.03162 µM) | relative viability (BI-2536 + Trametinib; first compound 0.1 µM) | relative viability (BI-2536 + Trametinib; first compound 0.3162 µM) | relative viability (BI-2536 + Trametinib; first compound 1 µM) | relative viability (BI-2536 + Foretinib; first compound 0.01 µM) | relative viability (BI-2536 + Foretinib; first compound 0.03162 µM) | relative viability (BI-2536 + Foretinib; first compound 0.1 µM) | relative viability (BI-2536 + Foretinib; first compound 0.3162 µM) | relative viability (BI-2536 + Foretinib; first compound 1 µM)
1 | NCI-H2087 | 0.941 | 0.861 | 0.63 | 0.737 | 0.82 | 0.873 | 0.873 | 0.813 | 0.941 | 0.71 | 0.18 | 0.183 | 0.147 | 0.0838 | 0.0815 | 1.03 | 1.17 | 0.476 | 0.133 | 0.124
2 | LC-2-ad | 0.981 | 1.04 | 0.926 | 1.01 | 1.07 | 0.569 | 0.862 | 0.485 | 0.438 | 0.791 | 0.913 | 0.803 | 0.672 | 0.224 | 0.239 | 0.909 | 0.386 | 0.289 | 0.285 | 0.322
3 | NCI-H1915 | 0.981 | 1.04 | 0.848 | 0.865 | 1.02 | 0.324 | 0.352 | 0.324 | 0.351 | 0.302 | 0.29 | 0.332 | 0.317 | 0.0844 | 0.0806 | 1.13 | 0.975 | 0.618 | 0.16 | 0.143
4 | NCI-H2023 | 0.968 | 1.09 | 1.15 | 1.01 | 1.23 | 0.511 | 0.63 | 0.605 | 0.583 | 0.603 | 0.53 | 0.528 | 0.25 | 0.113 | 0.102 | 0.864 | 0.914 | 0.671 | 0.0855 | 0.0903
5 | COR-L 105 | 0.699 | 0.982 | 0.848 | 0.672 | 1.12 | 0.33 | 0.317 | 0.384 | 0.323 | 0.467 | 0.463 | 0.454 | 0.394 | 0.267 | 0.297 | 1.12 | 0.848 | 0.913 | 0.366 | 0.344
6 | RERF-LC-KJ | 1.11 | 1.11 | 1.07 | 0.916 | 1.08 | 0.818 | 0.886 | 0.722 | 0.732 | 0.808 | 0.884 | 0.953 | 0.527 | 0.186 | 0.225 | 1 | 0.88 | 0.897 | 0.189 | 0.213
7 | LXF-289 | 1.02 | 1.06 | 0.955 | 1.04 | 1.02 | 0.211 | 0.199 | 0.199 | 0.218 | 0.238 | 0.68 | 0.654 | 0.64 | 0.12 | 0.102 | 1.03 | 0.826 | 0.613 | 0.0393 | 0.0552
8 | PC-14 | 0.809 | 0.849 | 0.892 | 0.839 | 1.08 | 0.271 | 0.238 | 0.272 | 0.227 | 0.293 | 0.847 | 0.71 | 0.0723 | 0.0556 | 0.0339 | 0.961 | 0.93 | 0.895 | 0.0827 | 0.0753
9 | NCI-H650 | 0.862 | 0.678 | 0.729 | – | 1.02 | 0.457 | 0.455 | 0.411 | 0.423 | 0.494 | 0.847 | 0.956 | 0.858 | 0.152 | 0.16 | 0.981 | 0.952 | 0.678 | 0.207 | 0.155
10 | NCI-H1666 | 0.9 | 0.801 | 0.73 | 0.647 | 1.03 | 0.705 | 0.841 | 0.723 | 0.832 | 0.912 | 0.919 | 0.914 | 0.865 | 0.49 | 0.512 | 1.02 | 0.981 | 0.826 | 0.447 | 0.421
11 | NCI-H2085 | 1.05 | 1.01 | 0.977 | 0.953 | 1.02 | 0.258 | 0.266 | 0.24 | 0.227 | 0.22 | 0.523 | 0.52 | 0.439 | 0.144 | 0.177 | 1.02 | 0.686 | 0.707 | 0.199 | 0.276
12 | NCI-H1734 | 0.879 | 0.96 | 0.969 | 0.779 | 1.13 | 0.513 | 0.493 | 0.455 | 0.437 | 0.509 | 0.723 | 0.638 | 0.593 | 0.173 | 0.165 | 0.886 | 0.889 | 0.464 | 0.199 | 0.176
13 | NCI-H2126 | 1.01 | 1.16 | 1.11 | 1.07 | 1.16 | 0.594 | 0.591 | 0.58 | 0.607 | 0.709 | 0.622 | 0.597 | 0.517 | 0.234 | 0.228 | 1.43 | 1.28 | 1.05 | 0.309 | 0.27
14 | EMC-BAC-2 | 1.06 | 1.15 | 0.951 | 1.01 | 1.12 | 0.345 | 0.295 | 0.346 | 0.333 | 0.367 | 0.854 | 0.851 | 0.819 | 0.303 | 0.277 | 1.03 | 1.18 | 0.947 | 0.202 | 0.194
15 | NCI-H1993 | 1 | 1.09 | 0.775 | 0.729 | 0.873 | 0.442 | 0.654 | 0.619 | 0.548 | 0.759 | 0.448 | 0.404 | 0.56 | 0.379 | 0.398 | 0.774 | 0.828 | 0.694 | 0.634 | 0.537
16 | NCI-H520 | 0.731 | 0.766 | 0.385 | 0.514 | 0.544 | 0.203 | 0.172 | 0.178 | 0.187 | 0.252 | 0.712 | 0.503 | 0.352 | 0.187 | 0.164 | 0.678 | 0.632 | 0.242 | 0.184 | 0.218
17 | NCI-H647 | 0.847 | 1.1 | – | 0.853 | 1.05 | 0.215 | 0.212 | 0.131 | 0.146 | 0.169 | 0.482 | 0.458 | 0.213 | 0.087 | 0.0808 | 1.35 | 1.16 | 0.649 | 0.101 | 0.128
18 | SK-LU-1 | 0.931 | 1.15 | 0.829 | 1.23 | 1.42 | 0.188 | 0.181 | 0.207 | 0.202 | 0.172 | 0.347 | 0.514 | 0.335 | 0.218 | 0.386 | 0.839 | 0.778 | 0.291 | 0.213 | 0.197
19 | ChaGo-K-1 | 0.988 | 0.945 | 0.994 | 0.744 | 1.01 | 0.577 | 0.624 | 0.505 | 0.53 | 0.596 | 0.9 | 0.875 | 0.733 | 0.181 | 0.202 | 0.851 | 0.972 | 0.687 | 0.164 | 0.217
20 | NCI-H1650 | 0.211 | 0.191 | 0.183 | 0.218 | 0.211 | 0.308 | 0.314 | 0.405 | 0.293 | 0.265 | 0.674 | 0.497 | 0.456 | 0.136 | 0.136 | 1.16 | 1.14 | 0.484 | 0.135 | 0.115
21 | NCI-H2009 | 1.01 | 1.1 | 1.09 | 0.842 | 1.24 | 0.297 | 0.342 | 0.301 | 0.287 | 0.317 | 0.262 | 0.246 | 0.336 | 0.131 | 0.159 | 1.18 | 0.94 | 0.547 | 0.265 | 0.279
22 | LOU-NH91 | 0.488 | 0.483 | 0.463 | 0.432 | 0.35 | 0.52 | 0.498 | 0.528 | 0.401 | 0.612 | 0.798 | 0.736 | 0.682 | 0.332 | 0.33 | 0.987 | 0.861 | 0.857 | 0.363 | 0.273
23 | NCI-H2405 | 1.01 | 0.99 | 0.921 | 0.753 | 1.11 | 0.236 | 0.209 | 0.194 | 0.213 | 0.212 | 0.607 | 0.549 | 0.441 | 0.277 | 0.357 | 1.05 | 0.731 | 0.386 | 0.296 | 0.354
24 | LCLC-97TM1 | 0.638 | 0.727 | 0.561 | 0.606 | 0.703 | 0.896 | 0.917 | 0.822 | 0.785 | 0.8 | 0.189 | 0.179 | 0.2 | 0.0929 | 0.0902 | 0.958 | 0.91 | 0.637 | 0.149 | 0.179
25 | NCI-H596 | 0.838 | – | 0.999 | 1 | 0.966 | 0.544 | 0.668 | 0.551 | 0.591 | 0.557 | 0.758 | 0.798 | 0.721 | 0.414 | 0.256 | 0.642 | 0.955 | 0.803 | 0.292 | 0.205
26 | NCI-H727 | 0.881 | 0.981 | 0.938 | 0.9 | 0.869 | 0.327 | 0.298 | 0.316 | 0.397 | 0.409 | 0.366 | 0.364 | 0.379 | 0.362 | 0.332 | 0.818 | 0.888 | 0.711 | 0.515 | 0.371
27 | H3255 | 0.841 | 0.642 | 0.647 | – | 1.11 | 0.406 | 0.314 | 0.323 | 0.245 | 0.35 | 0.571 | 0.582 | 0.294 | 0.281 | 0.424 | 0.769 | 1.03 | 0.49 | 0.261 | 0.218
